According to US20170071944A1, “MODULATORS OF TOLL-LIKE RECEPTORS FOR THE TREATMENT OF HIV” (Gilead Sciences, Inc., priority 2015, published 2017):
Where “and” joins values, the source holds several entries; their conditions need not be identical. Equal values may be shown once.

Experiments:
[1] = system: serum cytokines and chemokines associated with TLR8 activation; test: Induction of cytokines and chemokines in Rhesus macaques (serum, Luminex); format: in vivo
Experimental: The TLR8 modulator of Example 65 was formulated in 2% ethanol, 40% polyethylene glycol 300, and 58% 0.01 N hydrochloric acid. Oral solutions of formulations were prepared by dissolving a sufficient amount of the compound in the 2% ethanol, 40% polyethylene glycol 300, and 58% 0.01 N hydrochloric acid vehicle to arrive at 0.5, 1.5, or 5 mg/ml of Example 65. Rhesus macaques were dosed orally with 1.2 to 2 mls/kg to achieve dose levels of 1, 3, 6, or 10 mg/kg Example 65. Blood samples were collected at 2, 4, 8, 12, 24 and 48 hours postdose (FIG. 5) and allowed to clot under ambient conditions prior to centrifugation to obtain serum. The indicated cytokines and chemokines were quantified in serum with a multiplexed Luminex® assay following the manufacturer's instructions (Life Technologies). […] At 10 and 6 mg/kg, IL-12, IL-1RA and MCP-1 peaked near 10 ng/ml and IL-6 peaked at 1 ng/ml.

[2] = system: HIV-specific polyfunctional CD8 T cells; test: Induced HIV-specific polyfunctional CD8+ T cells in PBMC cultures from HIV-1 infected subjects on cART; format: cell-based, human; details: for Median HIV-specific polyfunctional CD8 T cells (% proliferating CD8+ cells double positive for IFN-γ and TNF-α): 5 subjects, vehicle 0.73% (Example 15 group), 0.13% (Example 98 group)
[3] = system: HIV-1 expression in PBMC cultures from HIV-1 infected subjects on cART; test: Induced HIV-1 expression in PBMC cultures from HIV-1 infected subjects on cART (HIV-1 RNA in culture supernatant, COBAS TaqMan); format: cell-based, human; details: for Fold HIV-1 Activation, Geometric Mean with ≧2-Fold-Activation / Fold HIV-1 Activation, Range with ≧2-Fold-Activation: N = 5 subjects
Experimental: In some experiments, IL-15, the TLR8 modulating compound of Example 15 or the combination of IL-15 and Example 15 were used at the indicated concentrations (Table 4). The cultures were maintained in the presence of antivirals (elvitegravir and efavirenz at 100 nM each) to prevent viral spread and amplification in order to measure the quantity of virus produced (latency reversal) by the TLR8 modulating compounds. At the end of the incubation period, cell-free culture supernatants were harvested and HIV-1 RNA levels were quantified by the COBAS® AmpliPrep/COBAS®TaqMan HIV-1 Test, v2.0 (Roche).
In each table, fold-activation is calculated as a ratio of HIV-1 RNA copies per ml of cell culture supernatants from TLR8 agonist treated samples and DMSO treated controls. Geometric mean fold-activation from three independent incubation samples for each condition of each subject's PBMCs.
To assess if the latency reversal induced by TLR8 agonism could further potentiate latency reversal by a separate mechanisms, we treated cells as described above with IL-15, Example 15, or a combination of IL-15 and Example 15 (Table 4).

[4] = Example 15 1000 nM and/or IL-15 1 nM, subjects 205-210

CCCC[C@](C)(CNC(C)=O)Nc1nc(N)nc2cc(Cl)cnc12 [Example 65]
Induction of cytokines associated with TLR8 activation, including IL-12, IL-6, IL-1RA and MCP-1 ([1]; oral, 1, 3, 6, or 10 mg/kg): induced in a dose-dependent manner | Time of peak cytokine concentrations post-dose ([1]; oral, 1, 3, 6, or 10 mg/kg): 2 h | Serum IL-1RA peak ([1]; oral, 10 and 6 mg/kg): ~10 ng/mL | Serum IL-6 peak ([1]; oral, 10 and 6 mg/kg): 1 ng/mL | Serum IL-12 peak ([1]; oral, 10 and 6 mg/kg): ~10 ng/mL | Serum MCP-1 peak ([1]; oral, 10 and 6 mg/kg): ~10 ng/mL

CCCCC(C)(CO)Nc1nc(N)nc2cc(F)cnc12 (stereo not drawn) [Example 98]
Patients in whom increases were seen ([2]; 100 nM): 4 of 5 | Median HIV-specific polyfunctional CD8 T cells (% proliferating CD8+ cells double positive for IFN-γ and TNF-α) ([2]; 100 nM with HIV peptide pool): 0.93% | Patients in whom increases were seen ([2]; 1000 nM): 4 of 5 | Increase of median HIV-specific polyfunctional CD8 T cells ([2]; 1000 nM combined with the HIV specific peptide pool, p<0.05): 7.1 fold | Median HIV-specific polyfunctional CD8 T cells (% proliferating CD8+ cells double positive for IFN-γ and TNF-α) ([2]; 1000 nM with HIV peptide pool): 0.92%

CCC[C@@H](CO)Nc1nc(N)nc2cc(F)c(F)cc12 [Example 119, (S)-2-((2-amino-6,7-difluoroquinazolin-4-yl)amino)pentan-1-ol, reference compound]
Fold HIV-1 Activation ([3]; 156 nM, 4 days, individual subjects 151-155, vs DMSO): 3.6 fold and 4.9 fold and 0.4 fold | Fold HIV-1 Activation, Geometric Mean with ≧2-Fold-Activation ([3]; 156 nM): 4.2 fold | Fold HIV-1 Activation, Range with ≧2-Fold-Activation ([3]; 156 nM): 3.6-4.9 fold | N with ≧2-Fold-Activation ([3]; 156 nM, subjects 151-155): 2 of 3 | N with ≧2-Fold-Activation (%) ([3]; 156 nM, subjects 151-155): (67) % | Fold HIV-1 Activation ([3]; 625 nM, 4 days, individual subjects 151-155, vs DMSO): 3.4 fold and 4.1 fold and 4.8 fold and 0.3 fold and 0.5 fold | Fold HIV-1 Activation, Geometric Mean with ≧2-Fold-Activation ([3]; 625 nM): 4.1 fold | Fold HIV-1 Activation, Range with ≧2-Fold-Activation ([3]; 625 nM): 3.4-4.8 fold | N with ≧2-Fold-Activation ([3]; 625 nM, subjects 151-155): 3 of 5 | N with ≧2-Fold-Activation (%) ([3]; 625 nM, subjects 151-155): (60) % | Fold HIV-1 Activation ([3]; 2,500 nM, 4 days, individual subjects 151-155, vs DMSO): 4.1 fold and 4.2 fold and 3.2 fold and 5.2 fold and 2.2 fold | Fold HIV-1 Activation, Geometric Mean with ≧2-Fold-Activation ([3]; 2,500 nM): 3.6 fold | Fold HIV-1 Activation, Range with ≧2-Fold-Activation ([3]; 2,500 nM): 2.2-5.2 fold | N with ≧2-Fold-Activation ([3]; 2,500 nM, subjects 151-155): 5 of 5 | N with ≧2-Fold-Activation (%) ([3]; 2,500 nM, subjects 151-155): (100) % | Fold HIV-1 Activation, Geometric Mean with ≧2-Fold-Activation ([3]; 156, 625, or 2500 nM): 4.1 fold | Fold HIV-1 Activation, Range with ≧2-Fold-Activation ([3]; 156, 625, or 2500 nM): 2.2-5.2 fold | N with ≧2-Fold-Activation ([3]; 156, 625, or 2500 nM, subjects 151-155): 5 out of 5 and 5 of 5

IL-15: interleukin IL-15, used at 1 nM as a separate latency reversal mechanism
Fold HIV-1 Activation, Geometric Mean ([3]; Example 15 1000 nM and/or IL-15 1 nM, N = 6 subjects): 2.9 fold | Fold HIV-1 Activation ([3]; Example 15 1000 nM and/or IL-15 1 nM, individual subjects 205-210, vs DMSO): 2.6 fold and 3.3 fold and 4.4 fold and 6.3 fold and 1.4 fold and 1.6 fold | N with ≧2-Fold-Activation [3, 4]: 4 of 6 | N with ≧2-Fold-Activation (%) [3, 4]: 66%
